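Tested at 5 concentrations; 48 h exposure; 96-well plates; endpoints linearly interpolated, else capped at highest concentration. GI50 is the concentration that inhibits growth by half.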 Active and inactive are the calls of the source. Rule as the data show it: active = GI50 up to about 1.1 µM and inactive = higher.
Tests used:
Assay in all cases: NCI-60 cell line screen, 48 h
786-0 = tested on: 786-0
A549 = tested on: A549
BT-549 = tested on: BT-549
CAKI-1 = tested on: CAKI-1
CCRF-CEM = tested on: CCRF-CEM
COLO 205 = tested on: COLO 205
DU-145 = tested on: DU-145
HCC 2998 = tested on: HCC 2998
HCT-116 = tested on: HCT-116
HCT-15 = tested on: HCT-15
HL-60 = tested on: HL-60
HOP-62 = tested on: HOP-62
HT-29 = tested on: HT-29
K562 = tested on: K562
KM12 = tested on: KM12
M14 = tested on: M14
MCF7 = tested on: MCF7
MDA-MB-231 = tested on: MDA-MB-231
MDA-MB-435 = tested on: MDA-MB-435
MDA-N = tested on: MDA-N
MOLT-4 = tested on: MOLT-4
Malme-3M = tested on: Malme-3M
NCI-H23 = tested on: NCI-H23
NCI-H460 = tested on: NCI-H460
NCI/ADR-RES = tested on: NCI/ADR-RES
OVCAR-3 = tested on: OVCAR-3
OVCAR-4 = tested on: OVCAR-4
OVCAR-5 = tested on: OVCAR-5
OVCAR-8 = tested on: OVCAR-8
PC-3 = tested on: PC-3
RPMI-8226 = tested on: RPMI-8226
RXF 393 = tested on: RXF 393
SF-268 = tested on: SF-268
SF-295 = tested on: SF-295
SK-MEL-2 = tested on: SK-MEL-2
SK-MEL-5 = tested on: SK-MEL-5
SN12C = tested on: SN12C
SNB-19 = tested on: SNB-19
SR = tested on: SR
TK-10 = tested on: TK-10
U-251 = tested on: U-251
UACC-257 = tested on: UACC-257
UO-31 = tested on: UO-31
A498 = tested on: A498
ACHN = tested on: ACHN
EKVX = tested on: EKVX
HOP-92 = tested on: HOP-92
NCI-H522 = tested on: NCI-H522
SF-539 = tested on: SF-539
SK-MEL-28 = tested on: SK-MEL-28
SNB-75 = tested on: SNB-75
SW-620 = tested on: SW-620
T47D = tested on: T47D
UACC-62 = tested on: UACC-62

For `NNC(=O)c1nn[nH]c1C(=O)NN`, the GI50 (786-0) was 15.5 µM (inactive), the GI50 (A549) was > 100 µM (inactive) and the GI50 (BT-549) was 13.6 µM (inactive). For the same compound, the GI50 (CAKI-1) was 15.8 µM (inactive), the GI50 (CCRF-CEM) was > 100 µM (inactive) and the GI50 (COLO 205) was > 100 µM (inactive). The GI50 (DU-145) was > 100 µM (inactive), the GI50 (HCC 2998) was > 100 µM (inactive) and the GI50 (HCT-116) was > 100 µM (inactive). For the same compound, the GI50 (HCT-15) was greater than 100 µM, the GI50 (HL-60) was > 100 µM (inactive) and the GI50 (HOP-62) was > 100 µM (inactive). The GI50 (HT-29) was 13.5 µM (inactive), the GI50 (K562) was > 100 µM (inactive) and the GI50 (KM12) was > 100 µM (inactive). The GI50 (M14) was > 100 µM (inactive), the GI50 (MCF7) was > 100 µM (inactive) and the GI50 (MDA-MB-231) was > 100 µM (inactive). For the same compound, the GI50 (MDA-MB-435) was > 100 µM (inactive), the GI50 (MDA-N) was > 100 µM (inactive) and the GI50 (MOLT-4) was > 100 µM (inactive). The GI50 (Malme-3M) was 15.1 µM (inactive), the GI50 (NCI-H23) was > 100 µM (inactive) and the GI50 (NCI-H460) was > 100 µM (inactive). The GI50 (NCI/ADR-RES) was > 100 µM (inactive), the GI50 (OVCAR-3) was > 100 µM (inactive) and the GI50 (OVCAR-4) was > 10 µM (inactive). The GI50 (OVCAR-5) was > 100 µM (inactive), the GI50 (OVCAR-8) was > 100 µM (inactive) and the GI50 (PC-3) was > 100 µM (inactive). For the same compound, the GI50 (RPMI-8226) was > 100 µM (inactive), the GI50 (RXF 393) was > 100 µM (inactive) and the GI50 (SF-268) was > 100 µM (inactive). The GI50 (SF-295) was > 100 µM (inactive), the GI50 (SK-MEL-2) was > 100 µM (inactive) and the GI50 (SK-MEL-5) was > 100 µM (inactive). The GI50 (SN12C) was > 100 µM (inactive), the GI50 (SNB-19) was > 100 µM (inactive) and the GI50 (SR) was > 100 µM (inactive). The GI50 (TK-10) was > 100 µM (inactive), the GI50 (U-251) was > 100 µM (inactive) and the GI50 (UACC-257) was > 100 µM (inactive). The GI50 (UO-31) was 19 µM (inactive).
For `COc1c2cc(C(C)(C)C)cc1Cc1cccc(c1O)Cc1cc(C(C)(C)C)cc(c1OC)Cc1cccc(c1O)Cc1cc(C(C)(C)C)cc(c1OC)Cc1cccc(c1O)C2`, the GI50 (786-0) was > 100 µM (inactive), the GI50 (A498) was > 100 µM (inactive) and the GI50 (A549) was > 100 µM (inactive). The GI50 (ACHN) was > 100 µM (inactive), the GI50 (CAKI-1) was > 100 µM (inactive) and the GI50 (CCRF-CEM) was > 10 µM (inactive). The GI50 (COLO 205) was > 100 µM (inactive), the GI50 (DU-145) was > 100 µM (inactive) and the GI50 (EKVX) was > 100 µM (inactive). The GI50 (HCC 2998) was > 100 µM (inactive), the GI50 (HCT-116) was > 100 µM (inactive) and the GI50 (HCT-15) was greater than 100 µM. For the same compound, the GI50 (HL-60) was > 100 µM (inactive), the GI50 (HOP-62) was > 100 µM (inactive) and the GI50 (HOP-92) was > 100 µM (inactive). For the same compound, the GI50 (HT-29) was > 100 µM (inactive), the GI50 (K562) was > 100 µM (inactive) and the GI50 (KM12) was > 100 µM (inactive). For the same compound, the GI50 (M14) was 55.6 µM (inactive), the GI50 (MCF7) was > 100 µM (inactive) and the GI50 (MDA-MB-231) was > 100 µM (inactive). The GI50 (MDA-MB-435) was > 100 µM (inactive), the GI50 (MDA-N) was > 100 µM (inactive) and the GI50 (MOLT-4) was > 100 µM (inactive). The GI50 (Malme-3M) was > 100 µM (inactive), the GI50 (NCI-H23) was > 10 µM (inactive) and the GI50 (NCI-H460) was > 100 µM (inactive). For the same compound, the GI50 (NCI-H522) was > 100 µM (inactive), the GI50 (NCI/ADR-RES) was > 100 µM (inactive) and the GI50 (OVCAR-3) was > 100 µM (inactive). For the same compound, the GI50 (OVCAR-5) was > 100 µM (inactive), the GI50 (OVCAR-8) was > 100 µM (inactive) and the GI50 (PC-3) was > 100 µM (inactive). For the same compound, the GI50 (RPMI-8226) was > 100 µM (inactive), the GI50 (RXF 393) was > 100 µM (inactive) and the GI50 (SF-268) was > 100 µM (inactive). For the same compound, the GI50 (SF-295) was > 100 µM (inactive), the GI50 (SF-539) was > 100 µM (inactive) and the GI50 (SK-MEL-28) was > 100 µM (inactive). For the same compound, the GI50 (SK-MEL-2) was > 100 µM (inactive), the GI50 (SK-MEL-5) was > 100 µM (inactive) and the GI50 (SN12C) was > 100 µM (inactive). For the same compound, the GI50 (SNB-19) was > 100 µM (inactive), the GI50 (SNB-75) was > 100 µM (inactive) and the GI50 (SR) was > 100 µM (inactive). The GI50 (SW-620) was > 100 µM (inactive), the GI50 (T47D) was > 100 µM (inactive) and the GI50 (U-251) was > 100 µM (inactive). For the same compound, the GI50 (UACC-257) was 96.6 µM (inactive), the GI50 (UACC-62) was > 100 µM (inactive) and the GI50 (UO-31) was > 100 µM (inactive).

Reference: ChEMBL document CHEMBL1201862, “PubChem BioAssay data set” (2004)
